Assay results: patent US4652581A, “Tetrahydroindole derivative as medicament for cerebral apoplexy” (Grelan Pharmaceutical Co., Ltd., priority 1983, dated 1987)
Read-outs that look alike come from different tables or passages of the source.

Tests used:
[1] = system: hemorrhagic infarction (rat cerebral infarction model); assay: Inhibition of hemorrhagic infarction in cerebral infarction model, ISI injection (Test Example 1A); type: in vivo, Sprague Dowley male rats; details: intraperitoneal
Description: (§1) (A) A cerebral infarction model was constructed by the following procedure. The bilateral common carotid arteries of Sprague Dowley male rats (body weights 300 to 350 g) in which one of the vertebral arteries was occluded by electrocauterization in accordance with the method of W. Pulsinelli et al (Stroke 10, 267, 1979) were uniformly occluded and made repatent, using clamps, at an interval of 1 hour for the first cycle and thereafter at 30-minute intervals for a total of 4 cycles.
After the final establishment of repatency in this test model and on the second day and onwards, 1 ml/100 g body weight of Glyceol ® Injection [a preparation containing 10 weight % of glycerol, the trademark of Chugai Pharmaceutical Co., Ltd., Japan] was intraperitoneally administered twice daily. The test drug ISI was dissolved in Glyceol ® Injection to a concentration of 0.08 weight % and administered in the same manner as Glyceol ® Injection.
In a disease model such as the one used in this experiment, death of animals occurs in many cases as an infarction leads to cerebral edema which compresses the brain stem. Therefore, for the purpose of preventing death due to this cause and ensuring a smooth performance of the experiment, the animals were treated with Glyceol ® Injection which has a relieving effect on cerebral edema.
The isolated brains were fixed in 10% formalin. […]

[2] = system: hemorrhagic infarction (rat cerebral infarction model); assay: Inhibition of hemorrhagic infarction in cerebral infarction model, ISI orally administered (Test Example 1B); type: in vivo, Sprague Dowley male rats; details: oral, twice daily
Description: as §1
The isolated brains were fixed in 10% formalin. For the assessment of hemorrhagic infarction, paraffin-embedded specimens prepared from three different sections passing through the mid-point between the anterior portion of the frontal lobe and the optic chiasm, the optic chiasm and the posterior portion of the mamillary body were used after H.E. stain.
(B) In the system using the above-mentioned cerebral infarction model, 0.25 ml/100 g body weight of suspension of the test drug ISI in 5% sodium alginate was orally administrated (dose of ISI: 30 mg/kg). To control animals, 0.25 ml/100 g body weight of 5% sodium alginate was orally administered. The administration schedule was twice daily for both groups.
The brains submitted to the study were subjected to the same treatment as above, and assessments were made on paraffin-embedded specimens.

[3] = system: cerebral apoplexy (stroke-prone spontaneously hypertensive rats); assay: Effect against cerebral apoplexy in NaCl-loaded stroke-prone spontaneously hypertensive rats (Test Example 2); type: in vivo
Description: Stroke-prone spontaneously hypertensive rats [K. Okamoto et al., Circulation Res. suppl. 34 & 35, 143 (1974)]of 10 weeks aged were fed, in conventional manner, with a 1 weight % aqueous solution of sodium chloride as drinking water [H. Ikeda et al., Europ. J. Pharmacol. 53, 173 (1979)]being employed.
Animals were subjected to periodical observation, three times a day, until the symptom of cerebral apoplexy was manifested in all the animals of the control group. The difference between the control group and the test group in the ranking of the symtoms of cerebral apoplexy manifested was subjected to rank sum test.
In the test group, each of the animals was orally treated every day with ISI dissolved in 1% gum-arabica solution so that the concentration may become 0.06 weight % at a dose of 0.5 ml/100 g body weight twice a day, starting with the sodium chloride loading. In the control group, each of the animals was treated with 1% gum-arabica solution at a dose of 0.5 ml/100 g body weight in a manner similar to that in the test group.
The animals in which the symptom of apoplexy was manifested, after being anesthetized, was treated with intravenous injection of 1% Evans Blue (dosage: 1 ml/kg). After sacrifice by bloodletting, hemorrhage and extravascular extravasation of the dye in the brain and the spinal cord was observed.
With paralysis of the limbs, stereotyped behaviour, an extreme loss of
those animals were counted as those suffering from C.A.: Excitement,
Hyperirritability, Depression, Epileptic symptom, Hemiplegia, Sudden

[4] = Acute toxicity (LD50 in mice); details: mouse, in vivo

Compound: CC(C)N1CC(O)C2=CC(=NNC(N)=O)C(=O)C=C21 (centres unmarked) [ISI, 1-isopropyl-3-hydroxy-5-semicarbazono-6-oxo-2,3,5,6-tetrahydroindole]
- Number of cases of hemorrhagic infarction ([1]; 0.08% ISI in Glyceol injection, 1 ml/100 g, twice daily, up to 7 days, control (Glyceol injection) 6/20): 1/19
- inhibitory effect on hemorrhagic infarction (significance versus control) ([1]; ISI in Glyceol injection vs control group): inhibitory effect on hemorrhagic infarction was obtained in the ISI group at the significance level of 5%
- Number of cases of hemorrhagic infarction ([2]; 30 mg/kg in 5% sodium alginate, control (sodium alginate) 18/43): 9/41
- inhibitory effect on cerebral infarction (significance versus control) ([2]; 30 mg/kg, vs control group): inhibitory effect on cerebral infarction was obtained in the ISI group at the significance level of 5%
- Number of animals suffering from C.A., Total ([3]; ISI 3.0 mg/kg, oral twice a day, total, days 20-42 after NaCl loading, control 10/10): 5/10
- Number of animals suffering from C.A. ([3]; ISI 3.0 mg/kg, 20 days after NaCl loading, control 0): 1
- Number of animals suffering from C.A. ([3]; ISI 3.0 mg/kg, 21 days after NaCl loading, control 1): 0
- Number of animals suffering from C.A. ([3]; ISI 3.0 mg/kg, 23 days after NaCl loading, control 1): 0
- Number of animals suffering from C.A. ([3]; ISI 3.0 mg/kg, 26 days after NaCl loading, control 1): 0
- Number of animals suffering from C.A. ([3]; ISI 3.0 mg/kg, 32 days after NaCl loading, control 1): 0
- Number of animals suffering from C.A. ([3]; ISI 3.0 mg/kg, 33 days after NaCl loading, control 1): 1
- Number of animals suffering from C.A. ([3]; ISI 3.0 mg/kg, 34 days after NaCl loading, control 1): 0
- Number of animals suffering from C.A. ([3]; ISI 3.0 mg/kg, 37 days after NaCl loading, control 0): 2
- Number of animals suffering from C.A. ([3]; ISI 3.0 mg/kg, 39 days after NaCl loading, control 1): 0
- Number of animals suffering from C.A. ([3]; ISI 3.0 mg/kg, 40 days after NaCl loading, control 1): 0
- Number of animals suffering from C.A. ([3]; ISI 3.0 mg/kg, 41 days after NaCl loading, control 0): 1
- Number of animals suffering from C.A. ([3]; ISI 3.0 mg/kg, 42 days after NaCl loading, control 2): 0
- effect of ISI against cerebral apoplexy (significance versus control) ([3]; oral ISI twice a day, Mann-Whitrey's U-test): 5% significant difference
- LD50 ([4]; intravenous, read-out: Acute toxicity LD50, intravenous): 350 mg/kg
- LD50 ([4]; oral, read-out: Acute toxicity LD50, oral): ≥ 10000 mg/kg
